Numbered stars: 1 amine (or outer) side, 2 acyl side, 3 side chain; on linkers, the order of the positions; unused ones are H or OH. Side chains are listed from the residue outwards. Peptide text beside a SMILES is read from it. * marks the point of attachment. C18 diacid = O=C(O)CCCCCCCCCCCCCCCCC(=O)*; γGlu = O=C(O)[C@H](CCC(=O)[*:2])N[*:1]; AEEA = NCCOCCOCC(=O)O

A short description of this data set: Assay (II) PK i.v. minipig, in vivo half-life. More on the design: species or system Göttingen mini-pigs. The conditions noted are these: male, Göttingen, minipig, iv, Half-life minipig, Assay (II). The method, boiled down: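 Male Göttingen mini-pigs (18–22 kg, n=5) received 6 nmol/kg i.v. via central catheter, formulated in 50 mM K2HPO4, 0.05% tween 80, pH 8.0. EDTA plasma sampled pre-dose to 240 h, quantified by TFC/LC/MS/MS (MRM, range 1-2000 nmol/l); half-life from non-compartmental analysis per animal.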
`CC[C@H](C)[C@H](NC(=O)[C@H](Cc1ccc(O)cc1)NC(=O)[C@H](CCCNC(=N)N)NC(=O)[C@H](CCCNC(=N)N)NC(=O)[C@H](CC(C)C)NC(=O)[C@H](CC(=O)O)NC(=O)[C@H](C)NC(=O)[C@H](C)NC(=O)[C@H](Cc1ccc(O)cc1)NC(=O)[C@H](CCC(N)=O)NC(=O)[C@H](C)NC(=O)[C@H](CCSC)NC(=O)[C@H](CCC(N)=O)NC(=O)[C@H](CCC(=O)O)NC(=O)[C@@H]1CCCN1C(=O)[C@@H](NC(=O)[C@H](C)NC(=O)[C@H](CC(N)=O)NC(=O)[C@H](CCCCNC(=O)COCCOCCNC(=O)COCCOCCNC(=O)CC[C@H](NC(=O)CCCCCCCCCCCCCCCCC(=O)O)C(=O)O)NC(=O)CNC(=O)[C@@H]1CCCN1C(=O)[C@H](Cc1ccc(O)cc1)NC(=O)[C@@H](NC(=O)[C@@H]1CCCN1C(=O)[C@H](CCC(=O)O)NC(=O)[C@H](CC(C)C)NC(=O)[C@@H]1CCCN1)C(C)C)[C@@H](C)O)C(=O)N[C@@H](CC(N)=O)C(=O)N[C@@H](CCSC)C(=O)N[C@@H](CC(C)C)C(=O)N[C@H](C(=O)N[C@@H](CCCNC(=N)N)C(=O)N1CCC[C@H]1C(=O)N[C@@H](CCCNC(=N)N)C(=O)N[C@@H](Cc1ccc(O)cc1)C(N)=O)[C@@H](C)O` [Compound X]: the half-life was 47 h.

For `CC[C@H](C)[C@H](NC(=O)[C@H](Cc1ccc(O)cc1)NC(=O)[C@H](CCCNC(=N)N)NC(=O)[C@H](CCCNC(=N)N)NC(=O)[C@H](CC(C)C)NC(=O)[C@H](CC(=O)O)NC(=O)[C@H](C)NC(=O)[C@H](C)NC(=O)[C@H](Cc1ccc(O)cc1)NC(=O)[C@H](CCC(N)=O)NC(=O)[C@H](C)NC(=O)[C@H](CCSC)NC(=O)[C@H](CCC(N)=O)NC(=O)[C@H](CCCCNC(=O)COCCOCCNC(=O)COCCOCCNC(=O)CC[C@H](NC(=O)CCCCCCCCCCCCCCCCC(=O)O)C(=O)O)NC(=O)[C@@H]1CCCN1C(=O)[C@@H](NC(=O)[C@H](C)NC(=O)[C@H](CC(N)=O)NC(=O)[C@H](CC(=O)O)NC(=O)CNC(=O)[C@@H]1CCCN1C(=O)[C@H](Cc1ccc(O)cc1)NC(=O)[C@@H](NC(=O)[C@@H]1CCCN1C(=O)[C@H](CCC(=O)O)NC(=O)[C@H](CC(C)C)NC(=O)[C@@H]1CCCN1)C(C)C)[C@@H](C)O)C(=O)N[C@@H](CC(N)=O)C(=O)N[C@@H](CCSC)C(=O)N[C@@H](CC(C)C)C(=O)N[C@H](C(=O)N[C@@H](CCCNC(=N)N)C(=O)N1CCC[C@H]1C(=O)N[C@@H](CCCNC(=N)N)C(=O)N[C@@H](Cc1ccc(O)cc1)C(N)=O)[C@@H](C)O` [Compound S] (H-PLEPVYPGDNATPK([AEEA-AEEA-γGlu-C18 diacid])QMAQYAADLRRYINMLTRPRY-NH2; N-terminus and C-terminus assumed), the half-life is 35 h.

Take `CC[C@H](C)[C@H](NC(=O)[C@H](Cc1ccc(O)cc1)NC(=O)[C@H](CCCNC(=N)N)NC(=O)[C@H](CCCNC(=N)N)NC(=O)[C@H](CC(C)C)NC(=O)[C@H](CC(=O)O)NC(=O)[C@H](C)NC(=O)[C@H](C)NC(=O)[C@H](Cc1ccc(O)cc1)NC(=O)[C@H](CCC(N)=O)NC(=O)[C@H](C)NC(=O)[C@H](CCSC)NC(=O)[C@H](CCC(N)=O)NC(=O)[C@H](CCC(=O)O)NC(=O)[C@@H]1CCCN1C(=O)[C@@H](NC(=O)[C@H](C)NC(=O)[C@H](CC(N)=O)NC(=O)[C@H](CC(=O)O)NC(=O)CNC(=O)[C@@H]1CCCN1C(=O)[C@H](Cc1ccc(O)cc1)NC(=O)[C@@H](NC(=O)[C@@H]1CCCN1C(=O)[C@H](CCC(=O)O)NC(=O)[C@@H](N)CC(C)C)C(C)C)[C@@H](C)O)C(=O)N[C@@H](CC(N)=O)C(=O)N[C@@H](CCSC)C(=O)N[C@@H](CC(C)C)C(=O)N[C@@H](CCCCNC(=O)COCCOCCNC(=O)COCCOCCNC(=O)CC[C@H](NC(=O)CCCCCCCCCCCCCCCCC(=O)O)C(=O)O)C(=O)N[C@@H](CCCNC(=N)N)C(=O)N1CCC[C@H]1C(=O)N[C@@H](CCCNC(=N)N)C(=O)N[C@@H](Cc1ccc(O)cc1)C(N)=O` [Compound AJ] (H-LEPVYPGDNATPEQMAQYAADLRRYINMLK([AEEA-AEEA-γGlu-C18 diacid])RPRY-NH2; N-terminus and C-terminus assumed): the half-life was 80 h.

By half-life is commonly meant the time in which the quantity being followed falls by half.

Values taken from patent US20150141336A1, “Pancreatic Peptide Compounds and Use” (Novo Nordisk A/S, priority 2012, published 2015).
